This assay concerns MEF A1-2A-BIM cells, caspase 3/7 luminescence, 3 h. The assay is described as follows: inducers of caspase signal in A1-dependent MEFs – cell-based, luminescence, retest, A1 inhibitor project, dose response (AID 2765).

Calls of active or inactive are those of the source.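 Rule for the calls: active = half-maximal concentration for the rise in caspase light signal at or below ten times the top tested dose; inconclusive = flat fit between 30% and 70% activity, or unreliable curve fit; inactive = the rest.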

Turning to `Cc1ccccc1Nc1nc(-c2sc(NC(=O)c3cccc(Cl)c3)nc2C)cs1`, the EC50 is > 35 µM (inactive). The result for `CC1(C)OC(=O)C(=Cc2ccc(-c3ccc(S(N)(=O)=O)cc3)o2)C(=O)O1` reads > 35 µM (inactive); that for `CS(=O)(=O)Nc1ccc(C2=NN(C(=O)c3cccc(F)c3)C(c3cccs3)C2)cc1` (centres undefined), > 35 µM (inactive). The result for `COc1ccc(NS(=O)(=O)c2cc(NC(=O)c3ccc(Cl)cc3)ccc2N2CCOCC2)cc1` reads > 35 µM (inactive); that for `CC(C)c1cccc(-c2ccc3c(c2)S(=O)(=O)c2cccc(C(=O)NC4CCCC4)c2C3=O)c1`, > 35 µM (inactive). As for `COc1ccc(OC[C@@H](O)CNC(=O)c2cccc3c2C(=O)c2ccc(-c4ccc(F)cc4OCc4ccccc4)cc2S3(=O)=O)cc1`, the EC50 was > 35 µM (inactive). For the compound `CCN(CC)c1ccc(C=NCCc2ccc(S(N)(=O)=O)cc2)cc1`, the EC50 is > 35 µM (inactive).

Consider `CCOC(=O)C(Cc1ccc(N)cc1)N1C(=O)c2ccccc2C1=O` (centres undefined), for which the EC50 is > 35 µM (inactive).

Consider `COc1ccc(OC)c2sc(N(CCCN(C)C)C(=O)c3ccc(S(=O)(=O)N4CCc5ccccc5C4)cc3)nc12`, for which the EC50 was > 35 µM (inactive). The result for `O=[N+]([O-])c1ccc(S(=O)(=O)N/N=C/c2ccsc2)cc1` reads > 35 µM (inactive). Under `Cc1cccc(C)c1NC(=O)C(Cl)C(=O)c1ccccc1` (centres undefined) stands > 35 µM (inactive); under `O=C(COC(=O)Cc1ccccc1[N+](=O)[O-])NCc1ccc(Cl)cc1`, > 35 µM (inactive). Regarding `COc1ccc(N2C(=O)CCC(C(=O)O)C2c2ccc(OC)c(OC)c2)cc1` (centres undefined), the EC50 was > 35 µM (inactive).

Regarding `Cc1ccccc1OCCOC(=O)c1c(-c2ccccc2)noc1C`, the EC50 is > 35 µM (inactive).

On to `CCN(C(=O)CSc1nc2ccccc2n1CC)C1CCS(=O)(=O)C1` (centres undefined), for which the EC50 was > 35 µM (inactive). The result for `O=C1N/C(=C/c2ccc(N3CCOCC3)o2)C(=O)N1c1cccc(Cl)c1` reads > 35 µM (inactive); that for `O=C(O)COc1ccccc1/C=C1\C(=O)Nc2ccc(Br)cc21`, > 35 µM (inactive).

In the case of `CCCCn1nc(C)c(C(=O)O)c1Cl`, the EC50 is > 35 µM (inactive). The result for `CC(=O)c1cccc(CN2CCN(CCc3ccccc3)C(CCO)C2)c1` (centres undefined) reads > 35 µM (inactive); that for `Cc1c(Nc2nc3ccccc3nc2NS(=O)(=O)c2cccc(Cl)c2)c(=O)n(-c2ccccc2)n1C`, > 35 µM (inactive). Under `CC(=O)OC(C)(C)/C=C/C(=O)[C@](C)(O)C1[C@H](O)C[C@@]2(C)C3CC=C4C(C[C@H](O)C(=O)C4(C)C)[C@]3(C)C(=O)C[C@]12C` (some centres undefined) stands > 35 µM (inactive).

Consider `CCOC(=O)c1c(C)oc2c1c(CN1CCN(C(=O)OCC)CC1)c(O)c1ccccc12`, for which the EC50 is 8.16 µM. Turning to `NS(=O)(=O)c1ccc(CCNC(=O)c2ccc3c(c2)OCCO3)cc1`, the EC50 is > 35 µM (inactive). Under `CCC(Sc1nc2cc3c(cc2c(=O)n1Cc1ccco1)OCO3)C(=O)Nc1cccc(OC)c1` (centres undefined) stands > 35 µM (inactive); under `CC(=O)OC[C@]12CC[C@H]3[C@@](C)(CC[C@H]4C(C)(C)CCC[C@]34C)[C@@H]1C[C@@H](C1=CC(=O)O[C@@H]1OC(C)=O)O2`, 4.98 µM; under `CC(=O)OCCn1c2nc(=O)[nH]c(=O)c-2nc2cc(C)c(C)cc21`, > 35 µM (inactive). For `CCc1nnc(NC(=O)CSc2nc(-c3ccccc3)cc(-c3ccc(F)cc3)c2C#N)s1`, the EC50 is 24.2 µM.

Consider `CCOc1ccccc1OCCC(=O)N1CCN(S(=O)(=O)c2ccccc2[N+](=O)[O-])CC1`, for which the EC50 was > 35 µM (inactive). As to `Cc1ccc(SCCNC(=S)Nc2cc(C)ccc2C)cc1`, the EC50 is > 35 µM (inactive).

In the case of `COc1ccc(CN2CCN(Cc3cc4ccccc4o3)CC2CCO)c(F)c1` (centres undefined), the EC50 was > 35 µM (inactive).

In the case of `Cc1cc(NC(=O)COC(=O)C(Cc2ccccc2)NC(=O)c2ccco2)no1` (centres undefined), the EC50 was > 35 µM (inactive). For `CCS(=O)(=O)c1nc2ccccc2n1Cc1ccccn1`, the EC50 is > 35 µM (inactive). The result for `CCOc1ccc(-c2ccc(NS(=O)(=O)c3ccc([N+](=O)[O-])cc3)cc2)nn1` reads > 35 µM (inactive); that for `COc1ccc(S(=O)(=O)N2CCC(C(=O)N[C@@H](C)C(=O)NCc3ccncc3)CC2)cc1`, > 35 µM (inactive). Under `CCOC(=O)C(C(=O)OCC)c1cc(Br)c2noc3c2c1C(=O)c1ccccc1-3` stands > 35 µM (inactive). Under `COc1cc(NC(=O)c2ccccc2)c(OC)cc1NC(=O)Cc1ccc(Br)cc1` stands > 35 µM (inactive); under `O=C(O)/C=C/C(=O)Nc1ccc(OC(F)F)cc1`, > 35 µM (inactive). On to `CC1(C(=O)NCC2CC2)C=CC2(CCCCC2)N1C(=O)c1ccccc1` (centres undefined), for which the EC50 is > 35 µM (inactive). In the case of `O=C(Nc1ccc2oc(-c3cccc(F)c3)nc2c1)c1ccccc1F`, the EC50 is > 35 µM (inactive). Consider `CC(=O)Oc1ccccc1C(=O)Oc1ccccc1C(=O)O`, for which the EC50 was > 35 µM (inactive).

As to `Cc1ccc(NC(=O)CSc2nc3nc(C)c(Br)cc3[nH]2)cc1F`, the EC50 is > 35 µM (inactive). With `Cc1ccc(N(Cc2cc(=O)[nH]c3ccccc23)C(=O)CCl)cc1`, the EC50 is > 35 µM (inactive). Under `Cc1ccc(C)c(NC(=O)CN(C)C(=O)c2ccc(-c3cccc(C(F)(F)F)c3)o2)c1` stands > 35 µM (inactive).

As to `O=C(c1ccccc1)c1n[nH]c(-c2ccccc2)cc1=O`, the EC50 was > 35 µM (inactive). In the case of `Cc1cc(=O)oc2c3c(cc(OCC(=O)N[C@@H](CC(C)C)C(=O)O)c12)OC(C)(C)CC3`, the EC50 was > 35 µM (inactive). The result for `Cc1ccc(NC(=S)NC(NC(=O)Cc2cccc3ccccc23)C(Cl)(Cl)Cl)cc1` (centres undefined) reads 20 µM; that for `COc1ccccc1C(=O)NC(=O)COC(=O)CCS(=O)(=O)c1ccc(C)cc1`, > 35 µM (inactive); that for `Cc1cccc(C)c1NC(=O)CSc1nc(C)c(CC(=O)c2ccc(Br)cc2)c(C)c1C#N`, 30.2 µM. For `Cc1c(O)c(=O)ccn1Cc1ccccc1`, the EC50 was > 35 µM (inactive). As for `C=CCNC(=O)CSc1nc2sc3c(c2c(=O)n1CCC)CCC3`, the EC50 is > 35 µM (inactive). Turning to `COc1ccc(S(=O)(=O)Nc2ccc(NC(C)=O)cc2)cc1`, the EC50 was > 35 µM (inactive). Turning to `CN(C)c1ccc(S(=O)(=O)N(C)C)cc1[N+](=O)[O-]`, the EC50 is > 35 µM (inactive). Take `CC1CCc2nn(CC(=O)NCCCN3CCCC3=O)cc2C1` (centres undefined): the EC50 is > 35 µM (inactive).

In the case of `O=C(CNc1cccc(S(=O)(=O)N2CCCC2)c1)Nc1cccc(C(F)(F)F)c1`, the EC50 was > 35 µM (inactive). Turning to `CCN(C(=O)CCN1C(=O)c2ccccc2S1(=O)=O)c1ccccc1`, the EC50 is > 35 µM (inactive). As for `COc1ccc2cc(C)c3nnc(SCC(=O)Nc4nc(-c5ccc(F)cc5)cs4)n3c2c1`, the EC50 is 9.65 µM. With `COc1ccc(C2C(C(=O)c3ccc(C)o3)=C(O)C(=O)N2Cc2cccnc2)cc1OC` (centres undefined), the EC50 was > 35 µM (inactive). Take `CN(CC(=O)Nc1cccc2ccccc12)C(=O)c1ccc(NC(=O)CC#N)cc1`: the EC50 is > 35 µM (inactive). `Cn1c(SCc2ccccc2)nc(N)c(N=O)c1=O`: the EC50 was > 35 µM (inactive). Under `CCc1noc(C)c1C(=O)N(CC)CC(=O)NCc1ccc(Cl)cc1` stands > 35 µM (inactive). Regarding `Cc1ccc(S(=O)(=O)n2ccc3c(OCCOCCNCc4ccc(F)cc4)cccc32)cc1`, the EC50 is > 35 µM (inactive).

In the case of `CC(=O)OCCCNc1cc(Sc2nc3ccccc3s2)c2nonc2c1[N+](=O)[O-]`, the EC50 is > 35 µM (inactive).

Turning to `Cc1cc(=O)[nH]c(SCC(=O)Nc2ccc(Br)cc2)c1C#N`, the EC50 was > 35 µM (inactive).

In the case of `Cc1cc(C)cc(Cn2ncc(Cl)c(Cl)c2=O)c1`, the EC50 was > 35 µM (inactive). `Cc1ccc(OCC(O)CN2CCN(CCO)CC2)c(C)c1` (centres undefined): the EC50 is > 35 µM (inactive). Consider `COc1cc(/C=C(/C#N)c2nc3ccccc3[nH]2)ccc1OCC(=O)Nc1ccccc1C`, for which the EC50 is 4.3 µM. As for `C=C(C(=O)Oc1ccccc1C(C)(C)C)c1ccccc1`, the EC50 is 15.9 µM. In the case of `CC(CC(=O)N1CCN(c2cccc(Cl)c2)CC1)S(=O)(=O)c1ccc2c(c1)NC(=O)CO2` (centres undefined), the EC50 was > 35 µM (inactive). On to `O=C(CS(=O)(=O)c1ccccc1)N(CCCN1CCOCC1)c1nc2c(F)cccc2s1`, for which the EC50 is > 35 µM (inactive).

As to `Cc1onc(-c2c(Cl)cccc2Cl)c1C(=O)N=S(C)(=O)c1ccccc1` (centres undefined), the EC50 is > 35 µM (inactive). Under `COc1ccccc1CC(=O)N1CCOCC1` stands > 35 µM (inactive); under `CCOC(=O)c1ccc(NS(=O)(=O)c2ccc3c(c2)CCCN3C(C)=O)cc1`, > 35 µM (inactive); under `O=C(NCCN1CCOCC1)c1cc(Cl)ccc1Cl`, > 35 µM (inactive). As for `COc1ccc(NC(=O)CN(C)C(=O)/C=C/c2ccc(S(=O)(=O)N3CCCCCC3)cc2)cc1`, the EC50 was > 35 µM (inactive). The result for `O=C(Nc1nc2c(Br)cc(Br)cc2c(=O)s1)c1ccco1` reads > 35 µM (inactive); that for `CCOc1ccc(-n2c(SCC(=O)Nc3ccc(Br)cc3)nc3n[nH]c(C)c3c2=N)cc1`, 21.6 µM; that for `Cc1c(C(=O)c2ccccc2C(=O)O)sc2ccccc12`, > 35 µM (inactive).

On to `Cc1noc(NS(=O)(=O)c2ccc(NC(=O)c3ccccc3NS(=O)(=O)c3ccc(F)cc3)cc2)c1C`, for which the EC50 was > 35 µM (inactive). For `O=C(CCC(=O)c1cccs1)OCC(=O)c1ccccc1`, the EC50 is > 35 µM (inactive).

`CO/N=C/C(C#N)=C/c1cc(C(=O)c2ccccc2)cn1C`: the EC50 is > 35 µM (inactive). With `Cc1cccc(-n2c(Cc3ccccc3)n[nH]c2=S)c1`, the EC50 is > 35 µM (inactive). Under `O=C(Nc1ccc(N2CCN(C(=O)c3ccco3)CC2)cc1)c1cccs1` stands > 35 µM (inactive); under `COc1ccccc1C/C(N)=N/OC(=O)c1cccc([N+](=O)[O-])c1`, > 35 µM (inactive); under `O=C1C=CC(=O)N1c1cccc(-c2ccccc2)c1`, > 35 µM (inactive).

The values are drawn from PubChem BioAssay AID2765 (Broad Institute, 2010).
